Experimental data published in publication PMC11677126, “Synthesis and Structure–Activity Relationship of Thiourea Derivatives Against Leishmania amazonensis” (Pharmaceuticals, 2024).

Legend:
[1] = test system: L. amazonensis intracellular amastigotes; experiment: Antiamastigote assay in infected peritoneal macrophages (infection index); type: cell-based; conditions: Leishmania amazonensis, Peritoneal macrophage, 72 h
Method: Resident macrophages from BALB/c mice were obtained by peritoneal lavage with 5 mL of cold RPMI medium. The cell suspension was adjusted to a 2 × 10^6 cells/mL concentration and plated in LAB-TEK chambers. After 1 h, the cultures were washed with phosphate-buffered saline at 37 °C to remove non-adherent cells. The remaining cells were incubated at 37 °C/5% CO2 with promastigotes of L. amazonensis at a ratio of 3:1. After 3 h, the chambers were rewashed to remove free parasites. […] For G2, we first tested only at a concentration of 10 µM, and derivatives with inhibition above 60% were evaluated using the dose–response curve. The antiamastigote activity was evaluated microscopically after staining the chambers with the Instant Prov hematological dye system (Newprov, Curitiba, Brazil); at least 100 macrophages were counted per sample. The results were expressed as the infection index (IF) using the following formula: IF = % infected cells X (number of amastigotes/total macrophages). The IC50 value was determined by nonlinear regression using Graph Pad Prism 9.0.

[2] = Toxicity assay in murine macrophages (resazurin); type: cell-based; conditions: BALB/c, mouse, mouse peritoneal macrophages
Method: Mouse peritoneal macrophages (2 × 10^6 cells/mL) in 96-well plates were treated with different concentrations of thiourea compounds (G1: 0–400 µM and G2: 0–125 µM) for 72 h at 37 °C/5% CO2. After removing the supernatant, viable cells were quantified by adding resazurin in phosphate-buffered saline, a final concentration of 50 µM, and then the samples were incubated for an additional 3 h. The fluorescence was measured using a Spectra Max GEMINI XPS spectrofluorometer (Molecular Devices, Silicon Valley, CA, USA) at excitation and emission wavelengths of 560 nm and 590 nm, respectively. The percentage of viable cells was calculated relative to the control cells. The cytotoxic concentrations lethal to 50% of the cells (CC50) were obtained by nonlinear regression of the sigmoid growth curves using the Graph Pad Prism 9.0 software.

[3] = test system: L. amazonensis promastigote; experiment: Antipromastigote assay (resazurin fluorescence); type: cell-based, Leishmania amazonensis; conditions: promastigotes, 72 h at 26 °C
Method: The fluorescence was measured using a Spectra Max GEMINI XPS spectrofluorometer (Molecular Devices, Silicon Valley, CA, USA) at excitation and emission wavelengths of 560 nm and 590 nm, respectively.

[4] = test system: L. amazonensis promastigotes; parameters: method as in doi:10.5897/JMA2013.0261; conditions: L. amazonensis promastigotes (text b27); cited from earlier work
[5] = test system: Leishmania amazonensis amastigotes; parameters: method as in PMID 28966275; conditions: read-out: IC50 (amastigote); cited from earlier work
[6] = test system: Leishmania infantum amastigotes; parameters: method as in PMID 30782984; conditions: cited from earlier work
[7] = G1 thioureas, maximum concentration tested 25 µM
[8] = G1 thioureas, maximum concentration tested 100 µM
[9] = Leishmania amazonensis, 72 h, G1 thioureas, maximum concentration tested 100 µM
[10] = Leishmania amazonensis, 72 h, G2 piperazine thioureas
[11] = G2 piperazine thioureas, maximum concentration tested 10 µM, unit from footnote
[12] = G2 piperazine thioureas, 0–125 µM

Row | Molecule | IC50 [3, 9] | IC50 [3, 10] | also measured
1 | S=C(Nc1ccccc1)Nc1ccc(Br)cc1 [Thiourea 3p] | < 50 µM | – | IC50 [1, 7]: 8.7 ± 1.4 µM; CC50 at 72 h ([2]; G1 thioureas, 0–400 µM): > 400 µM; IC50 [3, 8]: 32.9 ± 9.5 µM
2 | S=C(Nc1ccccc1)N1CCN(c2nc3ccccc3[nH]2)CC1 [Thiourea 5p] | – | > 128 µM | –
3 | S=C(NCCc1ccccc1)N1CCN(C(c2ccccc2)c2ccccc2)CC1 [Thiourea 5i] | – | 6.9 ± 2 µM | IC50 [1, 11]: 1.8 ± 0.5 µM; CC50 at 72 h [2, 12]: > 125 µM
4 | S=C(NCc1ccccc1)N1CCN(C(c2ccccc2)c2ccccc2)CC1 [Thiourea 5h] | – | 7.9 ± 1.9 µM | IC50 [1, 11]: 8.8 ± 3.5 µM; CC50 at 72 h [2, 12]: > 125 µM
5 | N=C(N)c1ccc(OCCCCCOc2ccc(C(=N)N)cc2)cc1 [pentamidine] | – | – | IC50 [4]: 0.46 µM
6 | S=C(NCCc1ccccc1)N1CCN(c2ccccc2Cl)CC1 [Thiourea 5l] | – | 28.2 ± 2.5 µM | IC50 [1, 11]: > 10 µM; CC50 at 72 h [2, 12]: 79.5 ± 19.8 µM
7 | S=C(NCCc1ccccc1)N1CCN(c2nc3ccccc3[nH]2)CC1 [Thiourea 5q] | – | 18.8 ± 3.1 µM | IC50 [1, 11]: > 10 µM; CC50 at 72 h [2, 12]: 72.9 ± 32.2 µM
8 | S=C(NCCc1ccccc1)Nc1ccccn1 [Thiourea 3f] | > 100 µM | – | –
9 | CCCCNC(=S)Nc1cc(OC)c(OC)c(OC)c1 [Thiourea 3b′] | > 100 µM | – | –
10 | COc1ccc(NC(=S)Nc2ccccc2)cc1 [Thiourea 3g] | > 100 µM | – | –
11 | COc1cc(NC(=S)Nc2nnc(C(F)(F)F)s2)cc(OC)c1OC [Thiourea 3a′] | 77.8 ± 6.7 µM | – | –
12 | COc1cc(NC(=S)NCCc2ccccc2)cc(OC)c1 [Thiourea 3l] | > 100 µM | – | –
13 | COc1cc(NC(=S)NCCc2ccccc2)cc(OC)c1OC [Thiourea 3m] | > 100 µM | – | –
14 | S=C(Nc1ccccc1)N1CCN(C(c2ccccc2)c2ccccc2)CC1 [Thiourea 5g] | – | 30.7 ± 3.2 µM | IC50 [1, 11]: > 10 µM; CC50 at 72 h [2, 12]: > 125 µM
15 | S=C(Nc1ccccc1)N1CCN(c2ccccc2Cl)CC1 [Thiourea 5j] | – | > 128 µM | –
16 | O=C(C1CCCO1)N1CCN(C(=S)NCc2ccccc2)CC1 (stereo not shown) [Thiourea 5b] | – | 77.5 ± 4.5 µM | –
17 | S=C(NCc1ccccc1)N1CCN(Cc2ccc3c(c2)OCO3)CC1 [Thiourea 5e] | – | 30.3 ± 4.6 µM | IC50 [1, 11]: > 10 µM; CC50 at 72 h [2, 12]: 122 ± 2.8 µM
18 | meglumine antimoniate | – | – | IC50 [5]: 212 µM
19 | COc1ccc(NC(=S)NCc2ccccc2)cc1 [Thiourea 3h] | 61.6 ± 6.5 µM | – | –
20 | COc1cc(NC(=S)N2CCOCC2)cc(OC)c1OC [Thiourea 3x] | > 100 µM | – | –
21 | S=C(NCCc1ccccc1)N1CCN(Cc2ccc3c(c2)OCO3)CC1 [Thiourea 5f] | – | > 128 µM | –
22 | CCCCNC(=S)Nc1ccccc1 [Thiourea 3t] | 60 ± 6.4 µM | – | –
23 | COc1ccc(NC(=S)Nc2cc(OC)c(OC)c(OC)c2)cc1OC [Thiourea 3z] | > 100 µM | – | –
24 | S=C(Nc1ccccc1)N1CCN(Cc2ccc3c(c2)OCO3)CC1 [Thiourea 5d] | – | 90.2 ± 2.9 µM | –
25 | S=C(NCc1ccccc1)Nc1ccc(Br)cc1 [Thiourea 3q] | < 50 µM | – | IC50 [1, 7]: > 25 µM; CC50 at 72 h ([2]; G1 thioureas, 0–400 µM): > 400 µM; IC50 [3, 8]: 44.4 ± 10.6 µM
26 | COc1ccc(CN2CCN(C(=S)NCc3ccccc3)CC2)c(OC)c1OC [Thiourea 5n] | – | 42.5 ± 1.6 µM | IC50 [1, 11]: > 10 µM; CC50 at 72 h [2, 12]: 88.3 ± 5.6 µM
27 | COc1ccc(CN2CCN(C(=S)Nc3ccccc3)CC2)c(OC)c1OC [Thiourea 5m] | – | > 128 µM | –

Row | Molecule | IC50 [3, 9] | IC50 [3, 10] | also measured
28 | COc1ccc(NC(=S)NCc2ccccc2)cc1OC [Thiourea 3i] | > 100 µM | – | –
29 | S=C(NCc1ccccc1)N1CCN(c2ccccc2Cl)CC1 [Thiourea 5k] | – | 30.7 ± 3 µM | IC50 [1, 11]: > 10 µM; CC50 at 72 h [2, 12]: 68.3 ± 2.8 µM
30 | O=C(NNC(=S)NCc1ccccc1)c1ccccc1 [Thiourea 3o] | 80.4 ± 10 µM | – | –
31 | S=C(Nc1ccccc1)Nc1ccccn1 [Thiourea 3d] | – | – | IC50 [1, 7]: 10.8 ± 2.4 µM; CC50 at 72 h ([2]; G1 thioureas, 0–400 µM): > 400 µM
32 | O=C(C1CCCO1)N1CCN(C(=S)NCCc2ccccc2)CC1 (stereo not shown) [Thiourea 5c] | – | > 128 µM | –
33 | COc1ccc(NC(=S)NCCc2ccccc2)cc1OC [Thiourea 3j] | > 100 µM | – | –
34 | COc1cc(NC(=S)N2CCN(c3ccccc3Cl)CC2)cc(OC)c1OC [Thiourea 5u] | – | > 128 µM | –
35 | S=C(NCc1ccccc1)N1CCOCC1 [Thiourea 3b] | > 100 µM | – | –
36 | CN(C[C@H](O)[C@@H](O)[C@H](O)[C@H](O)CO)C(=S)NCc1ccccc1 [Thiourea 3w] | > 100 µM | – | –
37 | S=C(Nc1ccccc1)N1CCOCC1 [Thiourea 3a] | > 100 µM | – | –
38 | CCCCCCCCCCCCCCCCOP(=O)([O-])OCC[N+](C)(C)C [Miltefosine, reference compound] | 6.9 ± 2.4 µM | 6.9 ± 2.4 µM | IC50 [1, 7]: 7.5 ± 1.2 µM; IC50 [1, 11]: 7.5 ± 1.2 µM; IC50 [6]: 2.84 ± 0.1 µM
39 | CCOC(=O)c1ccc(NC(N)=S)cc1 [Thiourea 9] | – | – | IC50 [4]: 45 µM
40 | COc1cc(NC(=S)N2CCN(C(=O)C3CCCO3)CC2)cc(OC)c1OC (stereo not shown) [Thiourea 5r] | – | > 128 µM | –
41 | COc1ccc(CN2CCN(C(=S)NCCc3ccccc3)CC2)c(OC)c1OC [Thiourea 5o] | – | > 128 µM | –
42 | Cc1ccccc1NC(=S)NCc1ccccc1 [Thiourea 3u] | 56.2 ± 4.2 µM | – | –
43 | O=C(C1CCCO1)N1CCN(C(=S)Nc2ccccc2)CC1 (stereo not shown) [Thiourea 5a] | – | > 128 µM | –
44 | COc1cc(NC(=S)N2CCN(Cc3ccc4c(c3)OCO4)CC2)cc(OC)c1OC [Thiourea 5s] | – | > 128 µM | –
45 | Cc1nnc(NC(=S)Nc2ccccc2)s1 [Thiourea 3r] | 65.8 ± 8.2 µM | – | –
46 | S=C(NCc1ccccc1)Nc1ccccn1 [Thiourea 3e] | < 50 µM | – | CC50 at 72 h ([2]; G1 thioureas, 0–400 µM): > 400 µM; IC50 [3, 8]: 25.4 ± 8.3 µM
47 | CCc1nnc(NC(=S)NCc2ccccc2)s1 [Thiourea 3s] | 58.4 ± 1.9 µM | – | –
48 | COc1cc(NC(=S)NCc2ccccc2)cc(OC)c1 [Thiourea 3k] | > 100 µM | – | –
49 | COc1cc(NC(=S)N2CCN(C(c3ccccc3)c3ccccc3)CC2)cc(OC)c1OC [Thiourea 5t] | – | 22.3 ± 1.6 µM | IC50 [1, 11]: 4.9 ± 1.2 µM; CC50 at 72 h [2, 12]: 81.3 ± 16.9 µM
50 | S=C(NCCc1ccccc1)N1CCOCC1 [Thiourea 3c] | > 100 µM | – | –
51 | CCCCNC(=S)Nc1ccc([Se][Se]c2ccc(NC(=S)NCCCC)cc2)cc1 [Compound 10] | – | – | IC50 [6]: 2.36 ± 0.44 µM
52 | Oc1cccc(NC(=S)NCc2ccccc2)c1 [Thiourea 3v] | > 100 µM | – | –
53 | COc1cc(NC(=S)Nc2ccccn2)cc(OC)c1OC [Thiourea 3y] | > 100 µM | – | –
54 | COc1cc(NC(=S)N2CCN(Cc3ccc(OC)c(OC)c3OC)CC2)cc(OC)c1OC [Thiourea 5v] | – | > 128 µM | –
